{
  "source": "patent US12023306B2",
  "about": "“Compositions comprising a cannabinoid and spilanthol” (priority 2019, dated 2024)",
  "key": {"[1]": {"system": "Dextran Sodium Sulphate (DSS) induced colitis", "test": "DSS induced colitis in mice, total length of colon from cecum to anus", "format": "in vivo, C57BL/6 mice", "settings": "for average colon length: CBD 50 mg/kg, Spilanthol 10 mg/kg, gavage daily 8 days, day 9, healthy 7.66, vehicle 4.9 cm; for decrease of colon length from baseline (healthy mice): vehicle 36% decrease", "experimental": "(§1) Colitis was induced in 10 weeks old female C57BL/6 mice (Harlan laboratories, Israel) by feeding them for 8 days with 1.5% (w/vol) DSS in the drinking water (Peer et al. Science, 319: 627-630, 2008; Dearling et al. IBD 2010; Dearling et al. IBD 2016), Kedmi et al. Nature Nanotechnology, 2018.\n(§2) Mice were divided into 4 study groups (10 mice in each group): 1. Vehicle treatment group; 2. CBD 50 mg/kg treatment group; 3. Spilanthol 10 mg/kg treatment group; and 4. CBD 50 mg/kg+Spilanthol 10 mg/kg combination treatment group (herein “test combination group”). Treatment was given via gavage daily for 8 days. An additional group of 10 healthy mice served as a […] control arm. Body weight was monitored every other day. At the end of day 9 the animals were sacrificed and colon TNFα levels as well as the total length of the length of colon from the cecum to anus were assayed.\n(§3) The following readouts were measured in the study as indicators for assessing the amelioration and the therapeutic efficacy of the different treatments: 1. Changes in body weight, 2. Colon's TNFα levels as measured by ELISA kits (R&D Systems, USA), 3. Total length of colon from cecum to anus, as measured by a blinded veterinary doctor."}, "[2]": {"system": "IL-6", "test": "MCD diet induced NASH in mice, IL-6 serum levels by ELISA", "format": "in vivo, FVB/NJ mice", "settings": "same doses, 21 days, healthy 88, untreated dieted 2,912 pg/ml", "description": "(§4) MCD diet in mice is considered a common gold standard model for the development of NASH. In this model, the absence of methionine leads to hepatic injury, inflammation, and fibrosis, and the deficiency of choline leads to macrovesicular steatosis. The MCD diet mouse model has been used in several studies to induce NASH with or without fibrosis.\n(§5) NASH was induced in 12 weeks old Male FVB/NJ mice fed with the MCD diet for 21 days. Mice were divided into 5 study groups (12 mice in each group): • 1. Healthy animal group—No induction of NASH by MCD diet. • 2. MCD diet group—with no treatment by either CBD or Spilanthol. • 3. CBD alone group—MCD diet+daily CBD 50 mg/kg treatment. • 4. Spilanthol alone group—MCD diet+daily Spilanthol 10 mg/kg treatment. • 5. Combination treatment group—MCD diet+daily CBD 50 mg/kg and Spilanthol 10 mg/kg treatment.\n(§6) Treatment was given via gavage daily for 21 days. […] Body weight was monitored every other day. At the end of day 21 the animals were sacrificed, and study readouts as described below were measured.\n(§7) The following readouts were measured in the study as indicators for the therapeutic efficacy of the different treatments: • 1. […] Study Readouts\n2. […] Pro-inflammatory cytokine IL-6 levels were also measured in the serum of the mice at the end of the 21 days of the study using a commercial ELISA kit (R&D systems, USA). […]"}, "[3]": {"system": "alanine aminotransferase (ALT)", "test": "MCD diet induced NASH in mice, ALT activity in serum", "format": "in vivo, FVB/NJ mice", "settings": "CBD 50 mg/kg, Spilanthol 10 mg/kg, gavage daily for 21 days, MCD elevation 515 SFU/ml", "description": "as §4\nas §5, with “Combination treatment group—MCD diet+daily CBD 50 mg/kg and Spilanthol 10 mg/kg treatment.” left out\nas §6, §7\n1. Liver enzyme activity levels in serum: The average level of alanine aminotransferase (ALT) activity in the serum of the mice in the different treatment groups was measured using a biochemical autoanalyzer following 21 days of the. […]"}, "[4]": {"system": "aspartate aminotransferase (AST)", "test": "MCD diet induced NASH in mice, AST activity in serum", "format": "in vivo, FVB/NJ mice", "settings": "CBD 50 mg/kg, Spilanthol 10 mg/kg, gavage daily for 21 days", "description": "as §4, §5\nTreatment was given via gavage daily for 21 days. That is, the MCD diet and treatment were initiated simultaneously, so as to examine the treatments' ability both to prevent and treat NASH. Body weight was monitored every other day. At the end of day 21 the animals were sacrificed, and study readouts as described below were measured.\nThe following readouts were measured in the study as indicators for the therapeutic efficacy of the different treatments: • 1. 1. Liver enzymes activity levels in the serum (ALT and AST). • 2. 2. […] Study Readouts […]"}, "[5]": {"system": "NASH induced by a methionine and choline deficient (MCD) diet", "test": "MCD diet induced NASH in mice, liver weight", "format": "in vivo, FVB/NJ mice", "settings": "same doses, 21 days", "description": "as §4, §5, §6, §7\n3. […] The total liver weight was also measured for all mice following the 21 days of the study. […] The average liver weight as measured in the not dieted mice group (healthy) was 1.22 grams. […]"}, "[6]": {"system": "TNFα", "test": "DSS induced colitis in mice, colon TNFα levels by ELISA", "format": "in vivo, C57BL/6 mice", "settings": "for average colon TNFα level: CBD 50 mg/kg, Spilanthol 10 mg/kg, gavage daily 8 days, day 9, healthy 486, vehicle 1,116 pg/ml; for reduction in the TNFα increase effect / reduction of colon TNFα level comparing to vehicle / increase of colon TNFα level from baseline (healthy mice): same doses; for reduction in the TNFα increase effect / reduction of colon TNFα level comparing to vehicle: day 9; for increase of colon TNFα level from baseline (healthy mice): vehicle 130% increase", "experimental": "as §1, §2, §3"}, "[7]": {"system": "Dextran Sodium Sulphate (DSS) induced colitis", "test": "DSS induced colitis in mice, changes in body weight", "format": "in vivo, C57BL/6 mice", "settings": "CBD 50 mg/kg, Spilanthol 10 mg/kg, gavage daily for 8 days; for prevention of the weight loss effect (improvement in outcome vs vehicle): day 9; for average loss of baseline body weight: measured on day 9, vehicle 14.6%", "experimental": "as §1, §2, §3"}, "[8]": {"system": "Ames test", "settings": "cited from earlier work"}, "[9]": {"system": "nitric oxide (NO) production", "settings": "RAW 264.7 murine macrophages; cited from earlier work"}, "[10]": {"system": "RAW 264.7 murine macrophages", "settings": "concentrations up to 40 μg/ml; cited from earlier work"}, "[11]": {"system": "human HEK293 kidney cells", "settings": "cited from earlier work"}, "[12]": {"system": "ICR mice", "settings": "acute toxicity; cited from earlier work"}},
  "data": [
    {"smiles": "C=C(C)C1CCC(C)=CC1c1c(O)cc(CCCCC)cc1O", "note": "(stereo not drawn) [CBD, 2-[3-methyl-6-(1-methylethenyl)-2-cyclohexen-1-yl]-5-pentyl-1,3-benzenediol]", "values": [
      {"measurement": "average colon length", "setting": "[1]", "value": 5.31, "unit": "cm"},
      {"measurement": "decrease of colon length from baseline (healthy mice)", "setting": "[1]; same doses", "value": 30.7, "unit": "%"},
      {"measurement": "improvement in outcome (colon shortening effect)", "setting": "[1]; same doses, vs vehicle", "value": 14.9, "unit": "%"},
      {"measurement": "reduction of the colon shortening effect", "setting": "[1]; same doses, vs vehicle", "value": 0.41, "unit": "cm"},
      {"measurement": "reduction of the elevated IL-6 serum levels", "setting": "[2]", "value": 13.5, "unit": "%"},
      {"measurement": "reduction of the elevated ALT serum activity levels", "setting": "[3]", "value": 16.5, "unit": "%"},
      {"measurement": "reduction in AST enzyme activity levels in serum", "setting": "[4]", "value": "neither CBD alone, nor Spilanthol alone has any significant effect"},
      {"measurement": "reduction in liver weight loss", "setting": "[5]", "value": 38.3, "unit": "%"},
      {"measurement": "average colon TNFα level", "setting": "[6]", "value": 928, "unit": "pg/mL"},
      {"measurement": "reduction in the TNFα increase effect", "setting": "[6]", "value": 30, "unit": "%"},
      {"measurement": "reduction of colon TNFα level comparing to vehicle", "setting": "[6]", "value": 188, "unit": "pg/mL"},
      {"measurement": "increase of colon TNFα level from baseline (healthy mice)", "setting": "[6]", "value": 91, "unit": "%"},
      {"measurement": "prevention of the weight loss effect (improvement in outcome vs vehicle)", "setting": "[7]", "value": 44, "unit": "%"},
      {"measurement": "average loss of baseline body weight", "setting": "[7]", "value": 8.2, "unit": "%"}
    ]},
    {"smiles": "C/C=C/C=C\\CC/C=C/C(=O)NCC(C)C", "note": "[Spilanthol, (2E,6Z,8E)-N-isobutyl-2,6,8-decatrienamide]", "values": [
      {"measurement": "mutagenic effects", "setting": "[8]; Ames test", "value": "No mutagenic effects"},
      {"measurement": "antimutagenic effects", "setting": "[8]; at 25 and 50 μg/ml", "value": "antimutagenic effects of affinin were observed"},
      {"measurement": "average colon length", "setting": "[1]", "value": 4.9, "unit": "cm"},
      {"measurement": "decrease of colon length from baseline (healthy mice)", "setting": "[1]; same doses", "value": 36, "unit": "%"},
      {"measurement": "improvement in outcome (colon shortening effect)", "setting": "[1]; same doses, vs vehicle", "value": 0, "unit": "%"},
      {"measurement": "reduction of the elevated IL-6 serum levels", "setting": "[2]", "value": "ineffective"},
      {"measurement": "effect on nitric oxide (NO) production", "setting": "[9]", "value": "stimulatory effect"},
      {"measurement": "reduction of the elevated ALT serum activity levels", "setting": "[3]", "value": "no effect"},
      {"measurement": "cytotoxic effects", "setting": "[10]", "value": "No cytotoxic effects"},
      {"measurement": "reduction in AST enzyme activity levels in serum", "setting": "[4]", "value": "neither CBD alone, nor Spilanthol alone has any significant effect"},
      {"measurement": "cytotoxic effect, mean inhibitory concentration (IC50)", "setting": "[11]", "value": 260, "unit": "µg/mL"},
      {"measurement": "median lethal dose (LD50)", "setting": "[12]", "value": 113, "unit": "mg/kg"},
      {"measurement": "reduction in liver weight loss", "setting": "[5]", "value": "no effect"},
      {"measurement": "average colon TNFα level", "setting": "[6]", "value": 980, "unit": "pg/mL"},
      {"measurement": "reduction in the TNFα increase effect", "setting": "[6]", "value": 21.5, "unit": "%"},
      {"measurement": "reduction of colon TNFα level comparing to vehicle", "setting": "[6]", "value": 136, "unit": "pg/mL"},
      {"measurement": "increase of colon TNFα level from baseline (healthy mice)", "setting": "[6]", "value": 101, "unit": "%"},
      {"measurement": "prevention of the weight loss effect (improvement in outcome vs vehicle)", "setting": "[7]", "value": 0, "unit": "%"},
      {"measurement": "average loss of baseline body weight", "setting": "[7]", "value": 14.6, "unit": "%"}
    ]}
  ]
}
